pIC50: −log10 of the molar value. Counter-ions that a name gives are not always drawn. Like-named read-outs stand apart in the source and are kept apart here.
Columns and labels:
[1] = target: T1, aldosterone synthase (CYP11B2) (Macaca fascicularis, UniProt A0A2K5UPL9); experiment: Inhibition of aldosterone synthase (cynomolgus adrenal mitochondria, aldosterone by mass spectrometry); type: biochemical, cynomolgus monkey; settings: cynomolgus adrenal gland mitochondria, 2 μM corticosterone substrate, 90 minutes at 37° C.
T1 construct: cynomolgus adrenal gland mitochondria as the source of aldosterone synthase (CYP11B2); from tissue; host or cells: cynomolgus monkey adrenal gland mitochondria
T1 sequence (A0A2K5UPL9 1-503): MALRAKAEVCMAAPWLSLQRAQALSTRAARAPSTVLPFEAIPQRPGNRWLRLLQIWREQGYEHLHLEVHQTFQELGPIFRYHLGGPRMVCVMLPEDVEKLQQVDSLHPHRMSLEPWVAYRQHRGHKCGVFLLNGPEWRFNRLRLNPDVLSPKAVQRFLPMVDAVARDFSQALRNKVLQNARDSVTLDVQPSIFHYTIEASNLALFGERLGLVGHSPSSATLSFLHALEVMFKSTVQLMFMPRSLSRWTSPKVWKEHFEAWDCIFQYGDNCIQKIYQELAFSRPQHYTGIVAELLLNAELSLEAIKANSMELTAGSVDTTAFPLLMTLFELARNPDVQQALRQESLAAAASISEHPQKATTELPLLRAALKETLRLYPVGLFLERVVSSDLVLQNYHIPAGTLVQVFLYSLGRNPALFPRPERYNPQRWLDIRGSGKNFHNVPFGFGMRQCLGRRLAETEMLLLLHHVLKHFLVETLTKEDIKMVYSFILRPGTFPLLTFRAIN
Description: (§1) The aldosterone synthase and cortisol synthase inhibition assays employ cynomolgus adrenal gland mitochondria as the source of aldosterone synthase (CYP11B2) and cortisol synthase (CYP11B1). Mitochondria are prepared from frozen cynomolgus monkey adrenal glands according to Method A described in by J. D. McGarry et al. (Biochem. J., 1983, 214, 21-28), with a final resuspension in the AT buffer described in R. Yamaguchi et al. (Cell Death and Differentiation, 2007, 14, 616-624), frozen as aliquots in liquid nitrogen and stored at −80° C. until use. Activity of CYP11B2 and CYP11B1 in these preparations is defined as the amount of enzyme that generates 1 pmol of product in one hour under the conditions described.
Assays are performed in 96-well format in a final volume of 60 µL/well, containing 100 mM potassium phosphate, pH 7.4, 1% (v/v) DMSO, and additionally, 2 μM of corticosterone and 50 units of CYP11B2 activity. Reactions are started by the addition of NADPH to 1 mM and allowed to proceed for 90 minutes at 37° C. Reactions are terminated by the addition of 60 μL of MeCN containing an internal standard for mass spectrometry. One hundred microliters are then transferred to a glass filter plate and centrifuged at 570×g for 5 minutes and the filtrate is collected. Reaction product aldosterone is quantified by mass spectrometry. To determine the assay blank value (0% activity), NADPH is omitted from some reactions.
Dose dependent inhibition is quantified by the inclusion of compound at various concentrations. Maximum activity (100%) is defined by reactions containing NADPH, but without compound. Activities at each concentration are expressed as a percentage of the maximum activity (y-axis) and plotted against concentration of compound (x-axis) and the concentration corresponding to 50% activity (IC50) determined using the XLFit curve-fitting program using a 4-parameter logistic model.

[2] = target: cortisol synthase (CYP11B1) (Macaca fascicularis, UniProt A0A2K5ULY1); experiment: Inhibition of cortisol synthesis (cynomolgus adrenal mitochondria, cortisol by mass spectrometry); type: biochemical, cynomolgus monkey
Description: as §1, with “described. Dose dependent inhibition is quantified by the inclusion of compound at various concentrations. Maximum activity (100%) is defined by reactions containing NADPH, but without compound. Activities at each concentration are expressed as a percentage of the maximum activity (y-axis) and plotted against concentration of compound (x-axis) and the concentration corresponding to 50% activity (IC50) determined using the XLFit curve-fitting program using a 4-parameter logistic model. Assays are performed as for aldosterone synthase except for the use of 150 units of CYP11B1, 11-deoxycortisol as substrate and cortisol measured as product.” for “described.”

[3] = cynomolgus adrenal gland mitochondria, 11-deoxycortisol as substrate, cortisol measured as product; read-out: CYP11B1 Inhibition IC50

Row | pIC50 [1] | pIC50 [2, 3] | SMILES | pIC50 ([2]; read-out: CYP11B1 Inhibition IC50; cynomolgus adrenal gland mitochondria, 11-deoxycortisol as substrate, cortisol measured as product)
1 | 7.66 | 5.55 | CC(=O)N1CCC(Cc2onc3c2C(=O)CC(C(C)C)C3)CC1 (single isomer, unassigned) [Cpd 15A, 3-(1-Acetyl-piperidin-4-ylmethyl)-6-isopropyl-6,7-dihydro-5H-benzo[c]isoxazol-4-one] | –
2 | 6.96 | 4.74 | CC(=O)N1CCC(Cc2onc3c2C(=O)CC(C(C)C)C3)CC1 (single isomer, unassigned) [Cpd 15B, 3-(1-Acetyl-piperidin-4-ylmethyl)-6-isopropyl-6,7-dihydro-5H-benzo[c]isoxazol-4-one] | –
3 | 6.64 | 5.08 | CC(C)C1CC(=O)c2c(noc2Cc2ccc(C#N)cc2)C1 (single isomer, unassigned) [Cpd 39A, 4-(-6-Isopropyl-4-oxo-4,5,6,7-tetrahydro-benzo[c]isoxazol-3-ylmethyl)-benzonitrile] | –
4 | 6.92 | 5.47 | CC(C)C1CC(=O)c2c(noc2Cc2ccc(C#N)cc2)C1 (single isomer, unassigned) [Cpd 39B, 4-(-6-Isopropyl-4-oxo-4,5,6,7-tetrahydro-benzo[c]isoxazol-3-ylmethyl)-benzonitrile] | –
5 | 8.14 | 5.96 | O=C1CC2(CCC2)Cc2noc(Cc3ccccc3)c21 [Cpd 1, 6,6-spiro-cyclobutyl-3-benzyl-6,7-dihydro-5-H-benzo[c]isoxazole-4-one] | –
6 | 7.96 | 5.30 | O=C1CC(CC2CC2)Cc2noc(Cc3ccccc3)c21 (stereo not drawn) [Cpd 2, 3-Benzyl-6-cyclopropylmethyl-6,7-dihydro-5H-benzo[c]isoxazol-4-one] | –
7 | 7.77 | 6.23 | CC1(C)CC(=O)c2c(noc2Cc2ccc3c(c2)OCCO3)C1 [Cpd 3, 3-(2,3-Dihydro-benzo[1,4]dioxin-6-ylmethyl)-6,6-dimethyl-6,7-dihydro-5H-benzo[c]isoxazol-4-one] | –
8 | 7.57 | 4.68 | CC(C)C1CC(=O)c2c(noc2CC2CC2)C1 (stereo not drawn) [Cpd 6, 3-Cyclopropylmethyl-6-isopropyl-6,7-dihydro-5H-benzo[c]isoxazol-4-one] | –
9 | 7.48 | 4.70 | CC(C)C1CC(=O)c2c(noc2CC2CCOCC2)C1 (stereo not drawn) [Cpd 7, 6-Isopropyl-3-(tetrahydro-pyran-4-ylmethyl)-6,7-dihydro-5H-benzo[c]isoxazol-4-one] | –
10 | 7.11 | < 4.00 | COc1ccc(Cc2onc3c2C(=O)CC(C2CCOCC2)C3)cc1 (stereo not drawn) [Cpd 8, 3-(4-Methoxy-benzyl)-6-(tetrahydro-pyran-4-yl)-6,7-dihydro-5H-benzo[c]isoxazol-4-one] | –
11 | 7.08 | 5.43 | CC1(C)CC(=O)c2c(noc2Cc2ccc(S(C)(=O)=O)cc2)C1 [Cpd 9, 3-(4-Methanesulfonyl-benzyl)-6,6-dimethyl-6,7-dihydro-5H-benzo[c]isoxazol-4-one] | –
12 | 6.96 | 5.11 | COc1ccc(Cc2onc3c2C(=O)CC(C)(C)C3)cn1 [Cpd 10, 3-(6-Methoxy-pyridin-3-ylmethyl)-6,6-dimethyl-6,7-dihydro-5H-benzo[c]isoxazol-4-one] | –
13 | 6.85 | 5.03 | CC1(C)CC(=O)c2c(noc2Cc2cccc(C#N)c2)C1 [Cpd 11, 3-(6,6-Dimethyl-4-oxo-4,5,6,7-tetrahydro-benzo[c]isoxazol-3-ylmethyl)-benzonitrile] | –
14 | 6.74 | 4.29 | N#Cc1ccc(Cc2onc3c2C(=O)CC(C2CCOCC2)C3)cc1 (stereo not drawn) [Cpd 12, 4-[4-Oxo-6-(tetrahydro-pyran-4-yl)-4,5,6,7-tetrahydro-benzo[c]isoxazol-3-ylmethyl]-benzonitrile] | –
15 | 6.72 | 4.66 | CC1(C)CC(=O)c2c(noc2Cc2ccc(F)cc2)C1 [Cpd 13, 3-(4-Fluoro-benzyl)-6,6-dimethyl-6,7-dihydro-5H-benzo[c]isoxazol-4-one] | –
16 | 7.33 | 5.41 | CC(=O)N1CCC(Cc2onc3c2C(=O)CC2(CCC2)C3)CC1 [Cpd 16, 3-(1-Acetyl-piperidin-4-ylmethyl)-6,6-spiro-cyclobutyl-6,7-dihydro-5H-benzo[c]isoxazol-4-one] | –
17 | 6.16 | 4.62 | CC(=O)N1CCC(Cc2onc3c2C(=O)CC(C)(C)C3)CC1 [Cpd 17, 3-(1-Acetyl-piperidin-4-ylmethyl)-6,6-dimethyl-6,7-dihydro-5H-benzo[c]isoxazol-4-one] | –
18 | 7.05 | 5.55 | COCC(=O)N1CCC(Cc2onc3c2C(=O)CC(C(C)C)C3)CC1 (stereo not drawn) [Cpd 18, 6-Isopropyl-3-[1-(2-methoxy-acetyl)-piperidin-4-ylmethyl]-6,7-dihydro-5H-benzo[c]isoxazol-4-one] | –
19 | 6.70 | 5.00 | CC(C)C1CC(=O)c2c(noc2CC2CCN(C(=O)CO)CC2)C1 (stereo not drawn) [Cpd 19, 3-[1-(2-Hydroxy-acetyl)-piperidin-4-ylmethyl]-6-isopropyl-6,7-dihydro-5H-benzo[c]isoxazol-4-one] | –
20 | 6.39 | 4.85 | CC(C)C1CC(=O)c2c(noc2CC2CCN(C(=O)CS(C)(=O)=O)CC2)C1 (stereo not drawn) [Cpd 20, 6-Isopropyl-3-[1-(2-methanesulfonyl-acetyl)-piperidin-4-ylmethyl]-6,7-dihydro-5H-benzo[c]isoxazol-4-one] | –
21 | 6.48 | 4.64 | CC(C)C1CC(=O)c2c(noc2CC2CCN(C(N)=O)CC2)C1 (stereo not drawn) [Cpd 21, 4-(6-Isopropyl-4-oxo-4,5,6,7-tetrahydro-benzo[c]isoxazol-3-ylmethyl)-piperidine-l-carboxylic acid amide] | –
22 | 7.24 | 5.46 | NC(=O)N1CCC(Cc2onc3c2C(=O)CC2(CCC2)C3)CC1 [Cpd 22, 4-(6,6-spiro-cyclobutyll-4-oxo-4,5,6,7-tetrahydro-benzo[c]isoxazol-3-ylmethyl)-piperidine-l-carboxylic acid amide] | –
23 | 7.16 | 4.13 | CC1(C)CC(=O)c2c(noc2Cc2ccc(C#N)cc2)C1 [Cpd 23, 4-(6,6-Dimethyl-4-oxo-4,5,6,7-tetrahydro-benzo[c]isoxazol-3-ylmethyl)-benzonitrile] | –
24 | 7.77 | 5.89 | CS(=O)(=O)CCCOc1ccc(Cc2onc3c2C(=O)CC(CC2CC2)C3)cc1 (stereo not drawn) [Cpd 24, 6-Cyclopropylmethyl-3-[4-(3-methanesulfonyl-propoxy)-benzyl]-6,7-dihydro-5H-benzo[c]isoxazol-4-one] | –
25 | 7.54 | 5.55 | CC1(C)CC(=O)c2c(noc2Cc2ccc(I)cc2)C1 [Cpd 25, 3-(4-Iodo-benzyl)-6,6-dimethyl-6,7-dihydro-5H-benzo[c]isoxazol-4-one] | –
26 | 7.31 | 5.64 | O=C1CC(Cc2ccccc2)Cc2noc(Cc3ccccc3)c21 (stereo not drawn) [Cpd 26, 3,6-Dibenzyl-6,7-dihydro-5H-benzo[c]isoxazol-4-one] | –

Row | SMILES | pIC50 [1] | pIC50 [2, 3] | pIC50 ([2]; read-out: CYP11B1 Inhibition IC50; cynomolgus adrenal gland mitochondria, 11-deoxycortisol as substrate, cortisol measured as product)
27 | CC(C)C1CC(=O)c2c(noc2CC2CCNCC2)C1 (stereo not drawn) [Cpd 14, 4-(6-Isopropyl-4-oxo-4,5,6,7-tetrahydro-benzo[c]isoxazol-3-ylmethyl)-piperidinium hydrochloride] | 5.62 | – | < 4.52
